Laboratory results as given in ChEMBL document CHEMBL1201862, “PubChem BioAssay data set” (2004).
The source made the active and inactive calls.

Key:
[1] = target: T1, Heat shock factor protein 1 (Mus musculus, UniProt P38532); assay: decrease of HSF1-responsive luciferase luminescence – cell-based, NIH3T3, dose retest, confirmation (AID 2382); type: functional;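 also: NIH3T3 fibroblasts with HSF1-driven luciferase reporter stressed by proteasome inhibitor MG132; luminescence from HSF1-driven luciferase expression after 8 hours of MG132 stress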
T1 sequence (P38532 whole entry): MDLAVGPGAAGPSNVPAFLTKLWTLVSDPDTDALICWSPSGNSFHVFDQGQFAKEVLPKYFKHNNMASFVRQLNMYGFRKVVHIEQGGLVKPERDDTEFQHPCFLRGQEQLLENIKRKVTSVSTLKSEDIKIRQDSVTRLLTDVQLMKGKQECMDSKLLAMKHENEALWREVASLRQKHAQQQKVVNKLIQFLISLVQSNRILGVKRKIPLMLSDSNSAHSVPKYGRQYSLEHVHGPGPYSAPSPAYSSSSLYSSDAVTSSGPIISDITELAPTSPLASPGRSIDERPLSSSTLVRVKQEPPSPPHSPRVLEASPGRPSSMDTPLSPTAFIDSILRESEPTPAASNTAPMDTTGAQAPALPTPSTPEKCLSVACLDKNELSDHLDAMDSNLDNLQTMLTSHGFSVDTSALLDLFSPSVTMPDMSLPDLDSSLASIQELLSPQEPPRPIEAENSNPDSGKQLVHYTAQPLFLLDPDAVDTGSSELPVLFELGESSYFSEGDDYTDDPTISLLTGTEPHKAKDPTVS

CHO-K1 = assay: (§1) Counterscreen for antagonists of the orexin 1 receptor (OX1R; HCRTR1): Homogeneous time resolved fluorescence (HTRF)-based cell-based dose response assay to identify antagonists of the parental CHO-K1 cell line. [Related pubchem assays (depositor defined):AID434989, AID435008, AID463079, AID485270, AID492963, AID492964, AID492965, AID493232, AID504699, AID504701]; type: functional; conditions: Cricetulus griseus
[2] = as §1, with “Fluorescence-based” for “Homogeneous time resolved fluorescence (HTRF)-based”, “cell-based high throughput” for “cell-based”, “CHO” for “CHO-K1”; type: functional
[3] = target: T2, Orexin/Hypocretin receptor type 1 (Homo sapiens, UniProt O43613); assay: Homogeneous Time Resolved Fluorescence (HTRF)-based cell-based high throughput dose response assay for antagonists of the orexin 1 receptor (OX1R; HCRTR1). [Related pubchem assays (depositor defined):AID434989, AID435008, AID463079, AID485270, AID492963, AID492964, AID492965, AID493232, AID504717, AID504718]; type: functional
T2 sequence (O43613 whole entry): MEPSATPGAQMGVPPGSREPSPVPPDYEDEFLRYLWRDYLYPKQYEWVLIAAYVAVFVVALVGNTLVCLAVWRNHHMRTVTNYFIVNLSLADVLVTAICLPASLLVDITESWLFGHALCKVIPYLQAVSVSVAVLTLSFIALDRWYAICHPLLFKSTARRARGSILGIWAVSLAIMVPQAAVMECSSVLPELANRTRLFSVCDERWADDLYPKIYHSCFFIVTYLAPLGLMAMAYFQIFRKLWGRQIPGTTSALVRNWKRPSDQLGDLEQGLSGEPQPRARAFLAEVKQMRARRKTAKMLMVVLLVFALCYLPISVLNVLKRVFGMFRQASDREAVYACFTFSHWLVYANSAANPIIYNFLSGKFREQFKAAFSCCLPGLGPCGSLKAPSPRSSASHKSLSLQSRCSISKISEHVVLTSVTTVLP

[4] = target: T2, Orexin/Hypocretin receptor type 1; assay: Fluorescence-based cell-based high throughput dose response assay for antagonists of the orexin 1 receptor (OX1R; HCRTR1). [Related pubchem assays (depositor defined):AID434989, AID435008, AID463079, AID485270, AID492963, AID492964, AID492965, AID493232, AID504717, AID504718]; type: functional
[5] = target: T3, Replicative DNA helicase DnaB (Mycobacterium tuberculosis, UniProt P9WMR3); assay: DnaB intein splicing inhibitors, dose response, biochemical, cell-free fluorescence (AID 449749); type: functional
T3 sequence (P9WMR3 whole entry): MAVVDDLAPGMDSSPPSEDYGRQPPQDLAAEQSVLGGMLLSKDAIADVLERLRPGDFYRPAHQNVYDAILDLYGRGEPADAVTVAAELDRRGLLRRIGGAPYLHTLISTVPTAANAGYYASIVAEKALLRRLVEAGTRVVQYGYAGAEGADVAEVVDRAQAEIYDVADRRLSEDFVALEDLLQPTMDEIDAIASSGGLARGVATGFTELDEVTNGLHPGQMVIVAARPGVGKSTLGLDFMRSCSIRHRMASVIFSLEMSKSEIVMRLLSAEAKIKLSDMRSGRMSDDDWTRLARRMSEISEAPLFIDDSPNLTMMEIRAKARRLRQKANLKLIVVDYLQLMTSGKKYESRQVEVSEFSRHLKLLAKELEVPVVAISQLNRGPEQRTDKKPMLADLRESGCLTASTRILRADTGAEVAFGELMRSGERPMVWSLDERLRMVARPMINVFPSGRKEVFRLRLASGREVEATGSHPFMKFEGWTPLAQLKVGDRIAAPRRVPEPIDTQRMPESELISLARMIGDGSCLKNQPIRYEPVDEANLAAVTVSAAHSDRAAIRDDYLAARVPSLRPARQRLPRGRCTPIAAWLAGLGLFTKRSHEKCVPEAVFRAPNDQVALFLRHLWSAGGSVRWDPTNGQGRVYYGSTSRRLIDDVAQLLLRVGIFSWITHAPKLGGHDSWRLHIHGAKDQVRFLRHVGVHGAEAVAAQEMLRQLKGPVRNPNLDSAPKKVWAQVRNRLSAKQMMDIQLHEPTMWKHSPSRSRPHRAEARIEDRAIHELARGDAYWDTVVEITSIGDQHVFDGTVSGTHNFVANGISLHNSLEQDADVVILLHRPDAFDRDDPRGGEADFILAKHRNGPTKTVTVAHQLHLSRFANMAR

Protein RecA = target: T4, Protein RecA (Mycobacterium tuberculosis, UniProt P9WHJ3); assay: Fluorescence Cell-Free Homogeneous Dose Retest to Identify Inhibitors of RecA-Intein Splicing Activity. [Related pubchem assays (depositor defined):AID2097, AID2223, AID489010, AID492950]; type: functional
T4 sequence (P9WHJ3 whole entry): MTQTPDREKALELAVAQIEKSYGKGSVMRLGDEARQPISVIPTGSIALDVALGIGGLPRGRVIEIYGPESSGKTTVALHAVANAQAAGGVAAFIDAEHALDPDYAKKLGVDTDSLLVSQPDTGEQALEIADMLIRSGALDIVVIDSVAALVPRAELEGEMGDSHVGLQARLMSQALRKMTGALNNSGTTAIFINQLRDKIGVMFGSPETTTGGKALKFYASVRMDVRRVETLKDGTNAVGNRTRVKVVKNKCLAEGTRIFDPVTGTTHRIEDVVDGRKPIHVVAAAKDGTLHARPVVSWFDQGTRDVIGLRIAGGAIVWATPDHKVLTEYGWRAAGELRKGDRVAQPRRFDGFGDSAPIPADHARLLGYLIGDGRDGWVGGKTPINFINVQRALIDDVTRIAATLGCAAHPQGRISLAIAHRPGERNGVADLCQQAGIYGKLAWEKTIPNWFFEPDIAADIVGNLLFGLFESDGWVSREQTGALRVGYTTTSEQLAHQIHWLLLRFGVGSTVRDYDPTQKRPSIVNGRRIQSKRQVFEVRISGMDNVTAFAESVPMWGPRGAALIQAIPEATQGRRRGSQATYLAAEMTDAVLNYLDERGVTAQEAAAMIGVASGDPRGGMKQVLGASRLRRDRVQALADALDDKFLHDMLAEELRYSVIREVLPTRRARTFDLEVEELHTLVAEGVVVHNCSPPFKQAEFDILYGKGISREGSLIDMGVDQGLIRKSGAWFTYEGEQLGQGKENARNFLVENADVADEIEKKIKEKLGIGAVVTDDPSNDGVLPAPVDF

[6] = target: Eukaryotic translation initiation factor 4E (Mus musculus, UniProt P63073); assay: blockers of eIF4G binding by eIF4E – biochemical, TR-FRET, dose response (AID 855); type: functional;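 also: potency for disrupting eIF4E binding to eIF4GI seen as loss of FRET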
[7] = target: T5, Carboxy-terminal domain RNA polymerase II polypeptide A small phosphatase 1 (Homo sapiens, UniProt Q9GZU7); assay: CTDSP1 inhibitors, concentration-response, biochemical, absorbance readout, ultra-high-throughput screen actives (AID 540297); type: functional
T5 sequence (Q9GZU7 whole entry): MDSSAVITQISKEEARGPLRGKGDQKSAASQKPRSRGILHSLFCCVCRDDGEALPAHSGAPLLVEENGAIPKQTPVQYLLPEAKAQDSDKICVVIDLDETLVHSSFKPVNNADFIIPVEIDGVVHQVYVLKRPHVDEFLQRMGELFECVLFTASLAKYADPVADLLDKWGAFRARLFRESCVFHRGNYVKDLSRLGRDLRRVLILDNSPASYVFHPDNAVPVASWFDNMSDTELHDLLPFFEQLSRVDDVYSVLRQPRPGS

Hexokinase = target: T6, Hexokinase (Trypanosoma brucei, UniProt Q38C41); assay: Confirmation assay for inhibitors of Trypanosoma brucei hexokinase 1-Analogue-first series. [Related pubchem assays (depositor defined):AID1430, AID1632, AID2516, AID2560, AID2579, AID2600, AID449725, AID492951]; type: functional
T6 sequence (Q38C41 whole entry): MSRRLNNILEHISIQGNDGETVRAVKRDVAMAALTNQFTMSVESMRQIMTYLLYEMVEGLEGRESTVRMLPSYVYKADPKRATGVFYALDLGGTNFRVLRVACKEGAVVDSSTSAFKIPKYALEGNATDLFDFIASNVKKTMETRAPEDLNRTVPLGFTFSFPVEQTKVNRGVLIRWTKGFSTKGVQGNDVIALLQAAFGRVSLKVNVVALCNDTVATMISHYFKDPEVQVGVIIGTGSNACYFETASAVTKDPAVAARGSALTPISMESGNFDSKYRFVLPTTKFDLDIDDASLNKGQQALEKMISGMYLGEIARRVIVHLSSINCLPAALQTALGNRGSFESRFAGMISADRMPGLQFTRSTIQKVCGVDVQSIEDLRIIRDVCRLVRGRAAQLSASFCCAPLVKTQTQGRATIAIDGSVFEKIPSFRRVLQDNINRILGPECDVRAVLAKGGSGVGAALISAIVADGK

[8] = target: Photoreceptor-specific nuclear receptor (Homo sapiens, UniProt Q9Y5X4); type: functional;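 also: potency for compounds that break the NR2E3 corepressor complex and count as activators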
[9] = target: Peroxisome proliferator-activated receptor gamma/Nuclear receptor corepressor 2 (Homo sapiens, UniProt P37231+Q9Y618); type: functional
Ephrin type-A receptor 4 = Ephrin type-A receptor 4 (Mus musculus, UniProt Q03137); assay: EphA4 ligand-binding antagonists – biochemical, colorimetric, mouse EphA4, primary screen (AID 689); type: functional
[10] = target: T7, Acyl-homoserine lactone acylase PvdQ (Pseudomonas aeruginosa (strain LESB58), UniProt Q9I194); assay: PvdQ acylase enzyme activity blockers – biochemical, fluorescence, plate reader and imaging, cherry-picks, dose response (AID 493231)
T7 sequence (Q9I194 whole entry): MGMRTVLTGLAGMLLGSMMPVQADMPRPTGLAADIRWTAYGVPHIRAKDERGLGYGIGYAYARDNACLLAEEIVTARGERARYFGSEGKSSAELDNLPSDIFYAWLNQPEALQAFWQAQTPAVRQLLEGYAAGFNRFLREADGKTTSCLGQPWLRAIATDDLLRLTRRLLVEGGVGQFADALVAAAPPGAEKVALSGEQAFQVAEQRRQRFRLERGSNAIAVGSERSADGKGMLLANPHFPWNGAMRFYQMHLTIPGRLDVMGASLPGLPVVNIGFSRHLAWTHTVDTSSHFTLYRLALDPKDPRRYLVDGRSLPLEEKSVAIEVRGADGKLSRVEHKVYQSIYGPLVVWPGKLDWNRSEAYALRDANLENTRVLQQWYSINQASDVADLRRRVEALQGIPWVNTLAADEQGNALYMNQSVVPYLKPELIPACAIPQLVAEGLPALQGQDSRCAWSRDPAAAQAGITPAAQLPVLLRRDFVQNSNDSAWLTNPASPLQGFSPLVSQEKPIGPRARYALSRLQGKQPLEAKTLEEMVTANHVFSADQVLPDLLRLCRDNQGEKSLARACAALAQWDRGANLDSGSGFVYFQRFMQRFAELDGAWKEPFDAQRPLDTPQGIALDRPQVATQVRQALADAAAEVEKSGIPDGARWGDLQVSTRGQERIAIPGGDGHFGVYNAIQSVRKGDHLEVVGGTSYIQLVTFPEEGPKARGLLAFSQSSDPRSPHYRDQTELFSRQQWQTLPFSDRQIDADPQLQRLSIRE

[11] = HEK-293T cell viability reduction – luminescence, B-cell screen hits, cytotoxicity control for BCR NF-kB inhibitor project, dose response (AID 489021); type: functional, cell-based;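 also: HEK-293T cells carrying an NF-kB luciferase reporter; cells exposed to compound for about 14 hours before viability readout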

Sequence of Eukaryotic translation initiation factor 4E (P63073 whole entry, the tested form may be a part): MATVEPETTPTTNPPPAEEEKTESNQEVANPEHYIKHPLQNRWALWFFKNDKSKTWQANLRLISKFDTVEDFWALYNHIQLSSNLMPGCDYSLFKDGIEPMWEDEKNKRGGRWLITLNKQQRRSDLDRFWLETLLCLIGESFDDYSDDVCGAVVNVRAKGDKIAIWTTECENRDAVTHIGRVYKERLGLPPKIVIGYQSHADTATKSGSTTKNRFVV
Sequence of Peroxisome proliferator-activated receptor gamma/Nuclear receptor corepressor 2 (P37231 whole entry): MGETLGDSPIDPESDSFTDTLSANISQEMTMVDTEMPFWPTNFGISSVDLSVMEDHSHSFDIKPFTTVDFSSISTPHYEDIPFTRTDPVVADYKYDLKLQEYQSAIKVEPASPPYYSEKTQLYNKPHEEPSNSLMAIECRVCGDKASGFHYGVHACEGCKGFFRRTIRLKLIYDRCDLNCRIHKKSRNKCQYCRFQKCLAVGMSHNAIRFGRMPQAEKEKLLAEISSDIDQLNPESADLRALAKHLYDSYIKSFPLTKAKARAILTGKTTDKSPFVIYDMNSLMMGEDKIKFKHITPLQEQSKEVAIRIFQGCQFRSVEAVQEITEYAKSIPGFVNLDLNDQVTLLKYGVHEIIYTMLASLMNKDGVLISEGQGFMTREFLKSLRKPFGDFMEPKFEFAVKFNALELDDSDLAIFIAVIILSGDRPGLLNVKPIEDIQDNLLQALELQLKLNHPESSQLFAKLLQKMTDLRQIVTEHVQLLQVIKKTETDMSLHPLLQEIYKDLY
Sequence of Peroxisome proliferator-activated receptor gamma/Nuclear receptor corepressor 2 (Q9Y618 whole entry): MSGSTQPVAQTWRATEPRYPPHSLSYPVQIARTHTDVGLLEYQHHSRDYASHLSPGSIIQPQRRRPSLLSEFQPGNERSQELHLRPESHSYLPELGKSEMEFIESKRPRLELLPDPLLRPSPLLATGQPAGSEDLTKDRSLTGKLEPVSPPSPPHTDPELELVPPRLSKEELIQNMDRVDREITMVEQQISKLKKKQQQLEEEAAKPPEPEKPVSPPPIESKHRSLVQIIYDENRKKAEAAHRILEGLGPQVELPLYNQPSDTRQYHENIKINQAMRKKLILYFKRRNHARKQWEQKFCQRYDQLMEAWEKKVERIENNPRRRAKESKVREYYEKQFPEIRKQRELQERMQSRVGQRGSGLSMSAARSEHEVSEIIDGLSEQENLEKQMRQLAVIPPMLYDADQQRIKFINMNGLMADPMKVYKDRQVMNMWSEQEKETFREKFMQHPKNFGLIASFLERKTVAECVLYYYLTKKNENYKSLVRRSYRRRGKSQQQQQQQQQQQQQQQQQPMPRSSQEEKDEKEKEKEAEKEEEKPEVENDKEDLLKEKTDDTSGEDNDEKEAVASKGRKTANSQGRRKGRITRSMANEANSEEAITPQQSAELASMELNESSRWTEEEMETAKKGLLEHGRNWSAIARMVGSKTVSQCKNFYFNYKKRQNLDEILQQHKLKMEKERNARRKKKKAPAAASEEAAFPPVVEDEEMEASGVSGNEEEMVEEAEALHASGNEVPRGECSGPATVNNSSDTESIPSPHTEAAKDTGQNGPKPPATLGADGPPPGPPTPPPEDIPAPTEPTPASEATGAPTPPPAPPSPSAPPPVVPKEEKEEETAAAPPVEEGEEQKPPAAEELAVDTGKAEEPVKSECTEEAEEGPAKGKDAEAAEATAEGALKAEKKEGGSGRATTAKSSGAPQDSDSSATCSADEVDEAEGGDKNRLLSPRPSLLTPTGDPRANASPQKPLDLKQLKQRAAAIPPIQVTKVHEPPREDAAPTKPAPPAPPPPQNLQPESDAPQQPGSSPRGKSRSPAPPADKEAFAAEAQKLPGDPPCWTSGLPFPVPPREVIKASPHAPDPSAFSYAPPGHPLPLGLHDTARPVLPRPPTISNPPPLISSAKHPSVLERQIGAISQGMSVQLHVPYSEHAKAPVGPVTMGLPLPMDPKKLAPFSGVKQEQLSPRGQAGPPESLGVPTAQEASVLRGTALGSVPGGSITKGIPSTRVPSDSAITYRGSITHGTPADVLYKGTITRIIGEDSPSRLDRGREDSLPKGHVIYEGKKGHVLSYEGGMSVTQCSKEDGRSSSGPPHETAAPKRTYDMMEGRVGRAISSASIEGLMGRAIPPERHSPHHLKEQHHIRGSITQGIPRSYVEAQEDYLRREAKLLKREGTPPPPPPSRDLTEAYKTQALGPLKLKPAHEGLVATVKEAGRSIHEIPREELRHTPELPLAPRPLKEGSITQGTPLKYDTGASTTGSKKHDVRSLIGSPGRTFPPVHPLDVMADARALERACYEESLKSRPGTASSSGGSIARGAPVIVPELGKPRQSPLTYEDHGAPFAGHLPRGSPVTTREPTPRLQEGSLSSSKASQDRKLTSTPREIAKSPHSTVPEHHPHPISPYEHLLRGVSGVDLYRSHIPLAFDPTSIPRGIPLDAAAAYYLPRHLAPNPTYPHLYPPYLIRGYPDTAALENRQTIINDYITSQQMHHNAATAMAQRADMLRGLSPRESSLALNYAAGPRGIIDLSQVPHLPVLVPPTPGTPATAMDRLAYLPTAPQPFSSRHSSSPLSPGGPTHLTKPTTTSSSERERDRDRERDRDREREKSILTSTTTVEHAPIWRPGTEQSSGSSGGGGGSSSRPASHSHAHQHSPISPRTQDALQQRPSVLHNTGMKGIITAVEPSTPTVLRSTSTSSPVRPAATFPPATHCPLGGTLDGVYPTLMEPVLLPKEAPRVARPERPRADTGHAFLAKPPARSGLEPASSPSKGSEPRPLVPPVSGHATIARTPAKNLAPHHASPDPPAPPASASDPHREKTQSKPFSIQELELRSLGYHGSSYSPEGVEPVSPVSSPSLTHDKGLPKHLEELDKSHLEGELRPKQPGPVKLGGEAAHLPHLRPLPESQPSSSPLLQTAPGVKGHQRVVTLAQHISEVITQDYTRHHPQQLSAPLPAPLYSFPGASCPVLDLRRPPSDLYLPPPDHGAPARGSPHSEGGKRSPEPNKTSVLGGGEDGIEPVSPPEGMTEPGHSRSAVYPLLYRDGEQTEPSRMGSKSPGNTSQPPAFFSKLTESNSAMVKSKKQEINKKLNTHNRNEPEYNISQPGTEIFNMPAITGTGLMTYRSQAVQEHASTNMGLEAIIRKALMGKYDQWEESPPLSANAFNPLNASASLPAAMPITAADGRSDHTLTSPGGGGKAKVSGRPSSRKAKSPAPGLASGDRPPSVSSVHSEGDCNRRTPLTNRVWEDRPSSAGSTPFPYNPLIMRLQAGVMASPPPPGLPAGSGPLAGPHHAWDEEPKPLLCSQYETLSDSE
Sequence of Ephrin type-A receptor 4 (Q03137 whole entry): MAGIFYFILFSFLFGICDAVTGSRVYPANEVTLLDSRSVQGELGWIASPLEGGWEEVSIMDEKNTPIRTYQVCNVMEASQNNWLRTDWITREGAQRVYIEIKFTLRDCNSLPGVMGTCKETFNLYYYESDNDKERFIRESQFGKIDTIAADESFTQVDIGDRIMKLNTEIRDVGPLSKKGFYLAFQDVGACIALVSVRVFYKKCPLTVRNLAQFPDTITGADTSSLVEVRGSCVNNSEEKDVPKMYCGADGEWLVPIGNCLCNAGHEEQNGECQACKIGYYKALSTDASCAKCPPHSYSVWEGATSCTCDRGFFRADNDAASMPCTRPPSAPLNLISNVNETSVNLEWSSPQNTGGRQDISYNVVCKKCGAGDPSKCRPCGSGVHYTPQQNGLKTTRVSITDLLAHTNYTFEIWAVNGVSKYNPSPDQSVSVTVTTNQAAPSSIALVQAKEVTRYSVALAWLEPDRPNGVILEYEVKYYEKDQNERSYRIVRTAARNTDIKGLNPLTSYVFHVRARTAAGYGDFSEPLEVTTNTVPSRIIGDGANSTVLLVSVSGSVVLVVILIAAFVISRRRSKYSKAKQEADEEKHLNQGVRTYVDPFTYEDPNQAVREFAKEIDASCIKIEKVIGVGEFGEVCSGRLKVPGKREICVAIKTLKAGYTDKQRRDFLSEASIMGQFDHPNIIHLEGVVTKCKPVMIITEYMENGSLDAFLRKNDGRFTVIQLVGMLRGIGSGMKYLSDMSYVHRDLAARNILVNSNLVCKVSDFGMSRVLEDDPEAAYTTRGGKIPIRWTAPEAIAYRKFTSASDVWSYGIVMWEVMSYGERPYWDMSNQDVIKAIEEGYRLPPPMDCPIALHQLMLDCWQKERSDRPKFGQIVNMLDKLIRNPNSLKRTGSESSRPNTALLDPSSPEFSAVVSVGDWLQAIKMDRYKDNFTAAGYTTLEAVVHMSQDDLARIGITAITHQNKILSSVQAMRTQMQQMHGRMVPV
Sequence of Photoreceptor-specific nuclear receptor (Q9Y5X4 whole entry): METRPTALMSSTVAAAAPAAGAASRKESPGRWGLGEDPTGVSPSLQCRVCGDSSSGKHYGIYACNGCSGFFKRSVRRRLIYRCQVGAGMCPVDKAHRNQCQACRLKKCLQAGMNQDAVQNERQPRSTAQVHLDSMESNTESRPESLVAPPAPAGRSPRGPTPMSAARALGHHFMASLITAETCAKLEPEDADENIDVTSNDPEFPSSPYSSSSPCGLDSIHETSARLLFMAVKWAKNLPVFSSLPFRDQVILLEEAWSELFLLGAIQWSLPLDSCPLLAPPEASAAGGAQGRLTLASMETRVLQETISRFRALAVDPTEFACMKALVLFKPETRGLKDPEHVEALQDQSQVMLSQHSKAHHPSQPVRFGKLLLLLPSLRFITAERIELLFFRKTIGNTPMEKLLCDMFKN

O=S(=O)(Nc1c(O)ccc2ccccc12)c1cccc2ccccc12
EC50 [1]: 15.7 µM (active) | IC50 (CHO-K1): 56.9 µM (inactive) | IC50 [2]: 39.2 µM (inactive) | IC50 [3]: 2.85 µM (active) | IC50 [4]: 13.1 µM (inactive) | AC50 [5]: 4.4 µM (active) | EC50 (Protein RecA): 1.77 µM (active)

Cc1ccc(-n2nc(-c3ccco3)cc2C(=O)O)c(C)c1
IC50 [6]: 50 µM (inactive) | IC50 [7]: 4.94 µM (active)

CC(C)Cc1ccc(C(=O)Nc2cc(Cl)ccc2C(=O)O)cc1
IC50 (Hexokinase): 7.25 µM (active)

O=C1NCC(c2ccccc2)C1C(=O)N/N=C\c1ccc(-c2cccc(Cl)c2Cl)o1 (stereo not given)
IC50 (CHO-K1): > 66.2 µM (inactive) | IC50 [2]: 24.7 µM (inactive) | IC50 [3]: 0.648 µM (active) | IC50 [4]: 2.32 µM (active)

COC(=O)Sc1nnc(-c2ccc(Br)cc2)o1
IC50 [8]: > 39.8 µM (not active) | IC50 [9]: 3.53 µM (active) | IC50 (Ephrin type-A receptor 4): 13 µM (active) | IC50 [6]: 30.7 µM (active)

CCOC(=O)CCCn1ncn2c(cc3occc32)c1=O
AC50 [10]: 12 µM (active)

COc1cc(-c2[nH]nc3c2C(c2ccco2)C(C#N)=C(N)O3)cc(OC)c1OC (stereo not given)
IC50 [11]: > 80 µM (inactive) | AC50 [5]: 6.62 µM (active) | EC50 (Protein RecA): 0.531 µM (active)

CC(C)(C)c1ccc(C(=O)Nc2c(C(=O)O)ccc(Cl)c2Cl)cc1
IC50 (Hexokinase): > 25 µM (inactive)

O=C(Nc1cc(Cl)ccc1C(=O)O)c1ccoc1
IC50 (Hexokinase): > 25 µM (inactive)

COc1ccccc1/C=C1\SC(=S)N(CCC(=O)Nc2cccc(O)c2)C1=O
IC50 [11]: 60.6 µM (inactive)
